Test results from patent US10517889B2, “Modulators of SMAD7 expression” (Ionis Pharmaceuticals, Inc., priority 2017, dated 2019).
“And” between values parts separate entries of the source, which are not always exact repeats. Identical values can stand only once. Strand notation (5' to 3'): a small letter for the sugar, then the base; units joined by * are phosphorothioate-linked, units joined directly phosphodiester-linked; [ ] holds rarer units or linkages, { } end groups; capitals alone tell only the bases. k = constrained ethyl (cEt); [5mC] = 5-methylcytosine; d = 2'-deoxy (DNA)

What was measured:
human SMAD7 mRNA [1] = assay: Dose-dependent inhibition of human SMAD7 mRNA expression in Hep3B cells (Example 3, Study 1 and 2); type: cell-based; conditions: electroporation; for % inhibition of SMAD7 mRNA expression: approximately 16 hours; for IC50: Study 2 (740-20000 nM)
Summary of the method: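 Hep3B cells, 20,000 per well, electroporated with antisense oligonucleotide at 0.31, 1.25, 5.00 or 20.00 μM (first series) or 0.74, 2.22, 6.67 or 20.00 μM (second series). After ~16 h, SMAD7 mRNA measured by RT-qPCR (RTS5062), normalised to RIBOGREEN total RNA. Percent inhibition vs untreated cells; IC50 derived.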

human SMAD7 mRNA [2] = assay: Antisense inhibition of human SMAD7 mRNA expression in Hep3B cells by 3-10-3 cEt gapmers, 10,000 nM, electroporation (Example 2); type: cell-based; conditions: approximately 24 hours; for % inhibition of SMAD7 mRNA expression: electroporation, 10,000 nM antisense oligonucleotide, RTS5062, relative to untreated control cells
Summary of the method: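 qRT-PCR (RTS5062) of SMAD7 mRNA, normalised to RIBOGREEN total RNA, gave percent inhibition relative to untreated controls. Hep3B cells at 20,000 per well received 10,000 nM oligonucleotide by electroporation, with ~24 h treatment.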

[3] = 740 nM, Study 2, relative to untreated control cells
[4] = Hep3B cells, electroporation with 10,000 nM antisense oligonucleotide, RTS5062, percent inhibition of SMAD7 mRNA relative to untreated control cells
[5] = SMAD7 mRNA, Hep3B cells, 10,000 nM antisense oligonucleotide, electroporation, primer probe set RTS5062, relative to untreated control cells

With “799511 (antisense kT*kA*kA*dT*dG*dA*d[5mC]*dA*dA*dT*dT*d[5mC]*d[5mC]*kA*kG*k[5mC]) [compound 799511]” the “% inhibition of SMAD7 mRNA expression” value (human SMAD7 mRNA [1]; [3]) was 0%, the “% inhibition of SMAD7 mRNA expression” value (human SMAD7 mRNA [1]; 2220 nM, Study 2) was 0% and the “% inhibition of SMAD7 mRNA expression” value (human SMAD7 mRNA [1]; 6670.0 nM, Study 2) was 35%. The “% inhibition of SMAD7 mRNA expression” value (human SMAD7 mRNA [1]; 20000.0 nM, Study 2) was 65%, the IC50 (human SMAD7 mRNA [1]) was 3 µM and the “% Inhibition” value (human SMAD7 mRNA [2]; Hep3B cells, electroporation with 10,000 nM antisense oligonucleotide, SMAD7 mRNA by RT-PCR (RTS5062), relative to untreated control cells) was 65%.
“799534 (kG*kA*kG*dA*dA*dT*dG*dA*dA*dG*dT*d[5mC]*d[5mC]*kA*kG*kA; antisense) [compound 799534]” was tested, and the “% inhibition of SMAD7 mRNA expression” value (human SMAD7 mRNA [1]; [3]) was 16%, the “% inhibition of SMAD7 mRNA expression” value (human SMAD7 mRNA [1]; 2220 nM, Study 2) was 60% and the “% inhibition of SMAD7 mRNA expression” value (human SMAD7 mRNA [1]; 6670.0 nM, Study 2) was 51%. For the same substance, the “% inhibition of SMAD7 mRNA expression” value (human SMAD7 mRNA [1]; 20000.0 nM, Study 2) was 86%, the IC50 (human SMAD7 mRNA [1]) was 1 µM and the “% inhibition of SMAD7 mRNA expression” value (human SMAD7 mRNA [2]; Hep3B cells) was 68%.
“799540 (kA*kG*k[5mC]*dT*dG*dA*dA*dG*d[5mC]*d[5mC]*d[5mC]*d[5mC]*d[5mC]*k[5mC]*kA*kA; antisense) [compound 799540]” was tested, and the “% inhibition of SMAD7 mRNA expression” value (human SMAD7 mRNA [1]; [3]) was 41%, the “% inhibition of SMAD7 mRNA expression” value (human SMAD7 mRNA [1]; 2220 nM, Study 2) was 60% and the “% inhibition of SMAD7 mRNA expression” value (human SMAD7 mRNA [1]; 6670.0 nM, Study 2) was 63%. For the same substance, the “% inhibition of SMAD7 mRNA expression” value (human SMAD7 mRNA [1]; 20000.0 nM, Study 2) was 73%, the IC50 (human SMAD7 mRNA [1]) was 5 µM and the “% inhibition of SMAD7 mRNA expression” value (human SMAD7 mRNA [2]; Hep3B cells) was 76%.
In the case of “799543 (kT*k[5mC]*kA*dA*dA*dT*dG*d[5mC]*dA*dT*dG*dA*dG*kT*kT*kA; antisense) [compound 799543]”, the “% inhibition of SMAD7 mRNA expression” value (human SMAD7 mRNA [1]; [3]) is reported as 13%, the “% inhibition of SMAD7 mRNA expression” value (human SMAD7 mRNA [1]; 2220 nM, Study 2) is reported as 26% and the “% inhibition of SMAD7 mRNA expression” value (human SMAD7 mRNA [1]; 6670.0 nM, Study 2) is reported as 61%. The “% inhibition of SMAD7 mRNA expression” value (human SMAD7 mRNA [1]; 20000.0 nM, Study 2) was 75%, the IC50 (human SMAD7 mRNA [1]) was 5 µM and the “% inhibition of SMAD7 mRNA expression” value (human SMAD7 mRNA [2]; Hep3B cells) was 65%.
With “799544 (kT*kT*k[5mC]*dA*dA*d[5mC]*dA*dA*dG*dT*dT*d[5mC]*d[5mC]*k[5mC]*kT*kA; antisense) [compound 799544]” the “% inhibition of SMAD7 mRNA expression” value (human SMAD7 mRNA [1]; [3]) was 19%, the “% inhibition of SMAD7 mRNA expression” value (human SMAD7 mRNA [1]; 2220 nM, Study 2) was 38% and the “% inhibition of SMAD7 mRNA expression” value (human SMAD7 mRNA [1]; 6670.0 nM, Study 2) was 54%. The “% inhibition of SMAD7 mRNA expression” value (human SMAD7 mRNA [1]; 20000.0 nM, Study 2) was 73%, the IC50 (human SMAD7 mRNA [1]) was 4 µM and the “% Inhibition” value (human SMAD7 mRNA [2]; [4]) was 72%.
“799556 (kA*k[5mC]*kA*dA*d[5mC]*dA*dA*dT*dG*d[5mC]*dT*d[5mC]*dT*kG*kG*k[5mC]; antisense) [compound 799556]” was tested, and the “% inhibition of SMAD7 mRNA expression” value (human SMAD7 mRNA [1]; [3]) was 0%, the “% inhibition of SMAD7 mRNA expression” value (human SMAD7 mRNA [1]; 2220 nM, Study 2) was 50% and the “% inhibition of SMAD7 mRNA expression” value (human SMAD7 mRNA [1]; 6670.0 nM, Study 2) was 71%. For the same substance, the “% inhibition of SMAD7 mRNA expression” value (human SMAD7 mRNA [1]; 20000.0 nM, Study 2) was 71%, the IC50 (human SMAD7 mRNA [1]) was 2 µM and the “% inhibition of SMAD7 mRNA expression” value (human SMAD7 mRNA [2]; Hep3B cells) was 68%.
With “799563 (kA*kA*kA*dA*d[5mC]*dA*dA*dA*d[5mC]*dA*dA*dG*dG*kG*kT*k[5mC]; antisense) [compound 799563]” the “% inhibition of SMAD7 mRNA expression” value (human SMAD7 mRNA [1]; [3]) was 32%, the “% inhibition of SMAD7 mRNA expression” value (human SMAD7 mRNA [1]; 2220 nM, Study 2) was 57% and the “% inhibition of SMAD7 mRNA expression” value (human SMAD7 mRNA [1]; 6670.0 nM, Study 2) was 85%. The “% inhibition of SMAD7 mRNA expression” value (human SMAD7 mRNA [1]; 20000.0 nM, Study 2) was 88%, the IC50 (human SMAD7 mRNA [1]) was 5 µM and the “% inhibition of SMAD7 mRNA expression” value (human SMAD7 mRNA [2]; Hep3B cells) was 68%.
With “799564 (k[5mC]*kA*kG*dA*dT*dA*dA*d[5mC]*dA*dG*dA*dG*dT*kA*kT*kA; antisense) [compound 799564]” the “% inhibition of SMAD7 mRNA expression” value (human SMAD7 mRNA [1]; [3]) was 13%, the “% inhibition of SMAD7 mRNA expression” value (human SMAD7 mRNA [1]; 2220 nM, Study 2) was 41% and the “% inhibition of SMAD7 mRNA expression” value (human SMAD7 mRNA [1]; 6670.0 nM, Study 2) was 60%. For the same substance, the “% inhibition of SMAD7 mRNA expression” value (human SMAD7 mRNA [1]; 20000.0 nM, Study 2) was 73%, the IC50 (human SMAD7 mRNA [1]) was 3 µM and the “% Inhibition” value (human SMAD7 mRNA [2]; [4]) was 70%.
For “799565 (kA*kG*kT*dA*dA*dA*d[5mC]*dA*dA*dT*dA*d[5mC]*d[5mC]*k[5mC]*kT*k[5mC]; antisense) [compound 799565]”, the “% inhibition of SMAD7 mRNA expression” value (human SMAD7 mRNA [1]; [3]) was 23%, the “% inhibition of SMAD7 mRNA expression” value (human SMAD7 mRNA [1]; 2220 nM, Study 2) was 49% and the “% inhibition of SMAD7 mRNA expression” value (human SMAD7 mRNA [1]; 6670.0 nM, Study 2) was 67%. For the same substance, the “% inhibition of SMAD7 mRNA expression” value (human SMAD7 mRNA [1]; 20000.0 nM, Study 2) was 86%, the IC50 (human SMAD7 mRNA [1]) was 11 µM and the “% Inhibition” value (human SMAD7 mRNA [2]; [4]) was 79%.
“799566 (kG*kA*kG*dT*dA*dA*dA*d[5mC]*dA*dA*dT*dA*d[5mC]*k[5mC]*k[5mC]*kT; antisense) [compound 799566]” was tested, and the “% inhibition of SMAD7 mRNA expression” value (human SMAD7 mRNA [1]; [3]) was 0% and 10%, the “% inhibition of SMAD7 mRNA expression” value (human SMAD7 mRNA [1]; 2220 nM, Study 2) was 32% and 64% and the “% inhibition of SMAD7 mRNA expression” value (human SMAD7 mRNA [1]; 6670.0 nM, Study 2) was 63% and 82%. For the same substance, the IC50 (human SMAD7 mRNA [1]) was 2 µM and 1 µM, the “% Inhibition” value (human SMAD7 mRNA [2]; [4]) was 74% and the “% Inhibition” value (human SMAD7 mRNA [2]; [5]) was 89%.
With “799568 (k[5mC]*kA*kT*dT*dA*dG*dA*dA*dG*d[5mC]*dT*dT*dT*kG*kA*kG; antisense) [compound 799568]” the “% inhibition of SMAD7 mRNA expression” value (human SMAD7 mRNA [1]; [3]) was 49%, the “% inhibition of SMAD7 mRNA expression” value (human SMAD7 mRNA [1]; 2220 nM, Study 2) was 58% and the “% inhibition of SMAD7 mRNA expression” value (human SMAD7 mRNA [1]; 6670.0 nM, Study 2) was 84%. For the same substance, the “% inhibition of SMAD7 mRNA expression” value (human SMAD7 mRNA [1]; 20000.0 nM, Study 2) was 92%, the IC50 (human SMAD7 mRNA [1]) was 6 µM and the “% Inhibition” value (human SMAD7 mRNA [2]; [4]) was 62%.
In the case of “799572 (kA*k[5mC]*k[5mC]*dA*dT*d[5mC]*dT*dA*dA*d[5mC]*dA*dA*d[5mC]*kA*kT*k[5mC]; antisense) [compound 799572]”, the “% inhibition of SMAD7 mRNA expression” value (human SMAD7 mRNA [1]; [3]) is reported as 0%, the “% inhibition of SMAD7 mRNA expression” value (human SMAD7 mRNA [1]; 2220 nM, Study 2) is reported as 35% and the “% inhibition of SMAD7 mRNA expression” value (human SMAD7 mRNA [1]; 6670.0 nM, Study 2) is reported as 62%. The “% inhibition of SMAD7 mRNA expression” value (human SMAD7 mRNA [1]; 20000.0 nM, Study 2) was 66%, the IC50 (human SMAD7 mRNA [1]) was 1 µM and the “% Inhibition” value (human SMAD7 mRNA [2]; [4]) was 79%. The “% Inhibition” value (human SMAD7 mRNA [2]; [5]) was 55%.
